A word on the IC50: it is the point on the concentration scale where inhibition reaches its midpoint.

Chain of NS5B polymerase (P26663 2420-3010): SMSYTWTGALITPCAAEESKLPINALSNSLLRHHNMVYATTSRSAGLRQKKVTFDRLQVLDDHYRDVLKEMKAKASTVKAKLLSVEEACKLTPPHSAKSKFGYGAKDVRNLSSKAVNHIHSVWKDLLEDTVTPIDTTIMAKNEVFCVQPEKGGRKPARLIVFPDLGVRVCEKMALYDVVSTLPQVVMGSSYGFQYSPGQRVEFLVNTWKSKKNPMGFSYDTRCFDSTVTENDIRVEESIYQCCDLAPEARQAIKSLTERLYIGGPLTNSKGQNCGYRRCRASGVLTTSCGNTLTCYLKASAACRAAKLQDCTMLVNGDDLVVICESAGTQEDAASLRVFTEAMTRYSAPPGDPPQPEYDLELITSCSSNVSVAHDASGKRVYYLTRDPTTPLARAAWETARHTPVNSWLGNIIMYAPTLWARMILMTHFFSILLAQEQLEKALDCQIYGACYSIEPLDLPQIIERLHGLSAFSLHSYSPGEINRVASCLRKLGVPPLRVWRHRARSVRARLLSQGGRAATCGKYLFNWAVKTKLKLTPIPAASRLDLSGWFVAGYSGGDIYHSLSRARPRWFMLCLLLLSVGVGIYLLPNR

This test concerns the target NS5B polymerase (Hepatitis C virus genotype 1b, UniProt P26663). The test can be described thus: biochemical. The following applies: NS5B polymerase inhibition; 20 nM enzyme, 75 min at 28° C.; read-out: IC50. How it is done: Compounds were tested for HCV polymerase inhibition. Assays were performed in a 96-well streptavidin-coated FlashPlate using 20 nM enzyme, 0.5 μCi of [α-^33P]GTP, 0.6 μM GTP, and 250 nM 5′biotinylated oligo (rG13)/poly rC in 20 mM Tris-HCl, pH 7.5, 5 mM MgCl2, 5 mM dithiothreitol, 0.1 g/L bovine serum albumin, and 100 U/mL RNAse inhibitor. The reaction was stopped by aspiration after 75 min at 28° C. and the plate was washed several times. After washing and drying the plate, incorporated radioactivity was counted using a Microbeta scintillation counter. IC50 values were calculated relative to the uninhibited control and inhibition data were fitted to a 4-parameter IC50 equation.
As to `O=C1C(C2=NS(=O)(=O)c3cc(C4CCCS4(=O)=O)ccc3N2)=C(O)[C@@H]2[C@H]3CC[C@H](C3)[C@@H]2N1Cc1ccc(F)cc1` (stereo partly drawn) [Example 21, (1R,2S,7R,8S)-5-[7-(1,1-Dioxo-tetrahydro-1λ^6-thiophen-2-yl)-1,1-dioxo-1,4-dihydro-1λ^6-benzo[1,2,4]thiadiazin-3-yl]-3-(4-fluoro-benzyl)-6-hydroxy-3-aza-tricyclo[6.2.1.0^2,7]undec-5-en-4-one], the concentration for half-maximal inhibition (IC50) fell in the range of 20 to 100 nM.

Turning to `CC(C)CCN1C(=O)C(C2=NS(=O)(=O)c3cc(NS(C)(=O)=O)ccc3N2)=C(O)[C@@H]2[C@H]3CC[C@H](C3)[C@@H]21` [Example 22, (1R,2S,7R,8S)-N-{3-[6-Hydroxy-3-(3-methyl-butyl)-4-oxo-3-aza-tricyclo[6.2.1.0^2,7]undec-5-en-5-yl]-1,1-dioxo-1,4-dihydro-1λ^6-benzo[1,2,4]thiadiazin-7-yl}-methanesulfonamide], the IC50 was in the range of 20 to 100 nM. For the compound `CC(C)CCN1C(=O)C(C2=NS(=O)(=O)c3cc(N(C)S(C)(=O)=O)ccc3N2)=C(O)[C@@H]2[C@H]3CC[C@H](C3)[C@@H]21` [Example 24, (1R,2S,7R,8S)-N-{3-[6-Hydroxy-3-(3-methyl-butyl)-4-oxo-3-aza-tricyclo[6.2.1.0^2,7]undec-5-en-5-yl]-1,1-dioxo-1,4-dihydro-1λ^6-benzo[1,2,4]thiadiazin-7-yl}-N-methyl-methanesulfonamide], the IC50 lay within 100 to 1000 nM. The result for `O=C1C(C2=NS(=O)(=O)c3cc(N4CCCS4(=O)=O)ccc3N2)=C(O)[C@@H]2[C@H]3CC[C@H](C3)[C@@H]2N1Cc1ccc(F)cc1` [Example 26, (1R,2S,7R,8S)-5-[7-(1,1-Dioxo-1λ^6-isothiazolidin-2-yl)-1,1-dioxo-1,4-dihydro-1λ^6-benzo[1,2,4]thiadiazin-3-yl]-3-(4-fluoro-benzyl)-6-hydroxy-3-aza-tricyclo[6.2.1.0^2,7]undec-5-en-4-one] reads 100 to 1000 nM. To `CS(=O)(=O)Nc1ccc2c(c1)S(=O)(=O)N=C(C1=C(O)[C@@H]3[C@H]4CC[C@H](C4)[C@@H]3NC1=O)N2` [Example 27, (1R,2S,7R,8S)-N-[3-(6-Hydroxy-4-oxo-3-aza-tricyclo[6.2.1.0^2,7]undec-5-en-5-yl)-1,1-dioxo-1,4-dihydro-1λ^6-benzo[1,2,4]thiadiazin-7-yl]-methanesulfonamide] belongs 1000 to 100000 nM.

On to `O=C1C(C2=NS(=O)(=O)c3ccccc3N2)=C(O)[C@@H]2[C@H]3CC[C@H](C3)[C@@H]2N1Cc1ccc(F)cc1` [Example 28, (1R,2S,7R,8S)-5-(1,1-Dioxo-1,4-dihydro-1λ^6-benzo[1,2,4]thiadiazin-3-yl)-3-(4-fluoro-benzyl)-6-hydroxy-3-aza-tricyclo[6.2.1.0^2,7]undec-5-en-4-one], for which the 50% inhibitory concentration (IC50) lay in the range of 100 to 1000 nM.

As to `CS(=O)(=O)Nc1ccc2c(c1)S(=O)(=O)C=C(C1=C(O)[C@@H]3[C@H]4CC[C@H](C4)[C@@H]3N(Cc3ccc(F)cc3)C1=O)N2` [Example 29, N-{3-[(1R,2S,7R,8S)-3-(4-Fluoro-benzyl)-6-hydroxy-4-oxo-3-aza-tricyclo[6.2.1.0^2,7]undec-5-en-5-yl]-1,1-dioxo-1,4-dihydro-1λ^6-benzo[1,4]thiazin-7-yl}-methanesulfonamide], the IC50 was below 20 nM. The result for `Nc1ccc2c(c1)S(=O)(=O)N=C(C1=C(O)[C@@H]3[C@H]4CC[C@H](C4)[C@@H]3N(Cc3ccc(F)cc3)C1=O)N2` [Example 30, (1R,2S,7R,8S)-5-(7-Amino-1,1-dioxo-1,4-dihydro-1λ^6-benzo[1,2,4]thiadiazin-3-yl)-3-(4-fluoro-benzyl)-6-hydroxy-3-aza-tricyclo[6.2.1.0^2,7]undec-5-en-4-one] reads 100 to 1000 nM. To `CC(C)CCN1C(=O)C(C2=NS(=O)(=O)c3cc(I)ccc3N2)=C(O)[C@@H]2[C@H]3CC[C@H](C3)[C@@H]21` [Example 34, (1R,2S,7R,8S)-6-Hydroxy-5-(7-iodo-1,1-dioxo-1,4-dihydro-1λ^6-benzo[1,2,4]thiadiazin-3-yl)-3-(3-methyl-butyl)-3-aza-tricyclo[6.2.1.0^2,7]undec-5-en-4-one] belongs 1000 to 100000 nM; to `O=C1C(C2=NS(=O)(=O)c3cc(NS(=O)(=O)C4CC4)ccc3N2)=C(O)C2C([C@@H]3CC[C@H]2C3)N1Cc1ccc(F)cc1` (stereo partly drawn) [Example 35, Cyclopropane sulfonic acid{3-[(1R,2S,7R,8S)-3-(4-fluoro-benzyl)-6-hydroxy-4-oxo-3-aza-tricyclo[6.2.1.0^2,7]undec-5-en-5-yl]-1,1-dioxo-1,4-dihydro-1λ^6-benzo[1,2,4]thiadiazin-7-yl}-amide], 20 to 100 nM; to `CC(C)CCN1C(=O)C(C2=NS(=O)(=O)c3cc(NS(=O)(=O)C4CC4)ccc3N2)=C(O)C2C1[C@@H]1CC[C@H]2C1` (stereo partly drawn) [Example 40, Cyclopropanesulfonic acid{3-(1R,2S,7R,8S)-[6-hydroxy-3-(3-methyl-butyl)-4-oxo-3-aza-tricyclo[6.2.1.0^2,7]undec-5-en-5-yl]-1,1-dioxo-1,4-dihydro-1λ^6-benzo[1,2,4]thiadiazin-7-yl}-amide], 20 to 100 nM. To `O=C1C(C2=NS(=O)(=O)c3cc(NS(=O)(=O)c4ccccc4)ccc3N2)=C(O)[C@@H]2[C@H]3CC[C@H](C3)[C@@H]2N1Cc1ccc(F)cc1` [Example 41, N-{3-[(1R,2S,7R,8S)-3-(4-Fluoro-benzyl)-6-hydroxy-4-oxo-3-aza-tricyclo[6.2.1.0^2,7]undec-5-en-5-yl]-1,1-dioxo-1,4-dihydro-1λ^6-benzo[1,2,4]thiadiazin-7-yl}-benzenesulfonamide] belongs 20 to 100 nM. For the compound `CS(=O)(=O)Nc1ccc2c(c1)S(=O)(=O)N=C(C1=C(O)C3C([C@@H]4CC[C@H]3C4)N(C3CCCC3)C1=O)N2` (stereo partly shown) [Example 44], the half-maximal inhibitory concentration (IC50) fell in the range of 100 to 1000 nM.

Regarding `CC(C)OC(=O)N(c1ccc2c(c1)S(=O)(=O)N=C(C1=C(O)C3C([C@@H]4CC[C@H]3C4)N(C3CCCC3)C1=O)N2)S(C)(=O)=O` (stereo partly drawn) [Example 47, N-[3-(1R,2S,7R,8S)-(3-Cyclopentyl-6-hydroxy-4-oxo-3-aza-tricyclo[6.2.1.0^2,7]undec-5-en-5-yl)-1,1-dioxo-1,4-dihydro-1λ^6-benzo[1,2,4]thiadiazin-7-yl]-methanesulfonamide-N-isopropyl carbamate], the IC50 lay in the range of 1000 to 100000 nM. The result for `CC(C)CCN1C(=O)C(C2=NS(=O)(=O)c3cc(N4CCCC4)ccc3N2)=C(O)[C@@H]2[C@H]3CC[C@H](C3)[C@@H]21` [Example 53, (1R,2S,7R,8S)-5-(1,1-Dioxo-7-pyrrolidin-1-yl-1,4-dihydro-1λ^6-benzo[1,2,4]thiadiazin-3-yl)-6-hydroxy-3-(3-methyl-butyl)-3-aza-tricyclo[6.2.1.0^2,7]undec-5-en-4-one] reads 1000 to 100000 nM; that for `O=C1C(C2=NS(=O)(=O)c3cc(NS(=O)(=O)c4cccnc4)ccc3N2)=C(O)C2C([C@@H]3CC[C@H]2C3)N1Cc1ccc(F)cc1` (stereo partly drawn) [Example 54, Pyridine-3-sulfonic acid{3-[(1R,2S,7R,8S)-3-(4-fluoro-benzyl)-6-hydroxy-4-oxo-3-aza-tricyclo[6.2.1.0^2,7]undec-5-en-5-yl]-1,1-dioxo-1,4-dihydro-1λ^6-benzo[1,2,4]thiadiazin-7-yl}-amide], 100 to 1000 nM. In the case of `NS(=O)(=O)Nc1ccc2c(c1)S(=O)(=O)N=C(C1=C(O)[C@@H]3[C@H]4CC[C@H](C4)[C@@H]3N(Cc3ccc(F)cc3)C1=O)N2` [Example 55, (1R,2S,7R,8S)-N-{3-[3-(4-Fluoro-benzyl)-6-hydroxy-4-oxo-3-aza-tricyclo[6.2.1.0^2,7]undec-5-en-5-yl]-1,1-dioxo-1,4-dihydro-1λ^6-benzo[1,2,4]thiadiazin-7-yl}-sulfamide], the IC50 was below 20 nM.

As to `CS(=O)(=O)Nc1ccc2c(c1)S(=O)(=O)N=C(C1=C(O)[C@@H]3[C@H]4CC[C@H](C4)[C@@H]3N(Cc3ccccc3)C1=O)N2` [Example 56, (1R,2S,7R,8S)-N-[3-(3-Benzyl-6-hydroxy-4-oxo-3-aza-tricyclo[6.2.1.0^2,7]undec-5-en-5-yl)-1,1-dioxo-1,4-dihydro-1λ^6-benzo[1,2,4]thiadiazin-7-yl]-methanesulfonamide], the half-inhibitory concentration (IC50) was below 20 nM. On to `CC(C)CN1C(=O)C(C2=NS(=O)(=O)c3cc(NS(C)(=O)=O)ccc3N2)=C(O)[C@@H]2[C@H]3CC[C@H](C3)[C@@H]21` [Example 57, (1R,2S,7R,8S)-N-[3-(6-Hydroxy-3-isobutyl-4-oxo-3-aza-tricyclo[6.2.1.0^2,7]undec-5-en-5-yl)-1,1-dioxo-1,4-dihydro-1λ^6-benzo[1,2,4]thiadiazin-7-yl]-methanesulfonamide], for which the IC50 is 20 to 100 nM.

Regarding `CS(=O)(=O)Nc1ccc2c(c1)S(=O)(=O)N=C(C1=C(O)[C@@H]3[C@H]4CC[C@H](C4)[C@@H]3N(Cc3ccc(F)c(Cl)c3)C1=O)N2` [Example 58, (1R,2S,7R,8S)-N-{3-[3-(3-Chloro-4-fluoro-benzyl)-6-hydroxy-4-oxo-3-aza-tricyclo[6.2.1.0^2,7]undec-5-en-5-yl]-1,1-dioxo-1,4-dihydro-1λ^6-benzo[1,2,4]thiadiazin-7-yl}-methanesulfonamide], the half-maximal inhibitory concentration (IC50) was below 20 nM.

On to `Cc1ccc(CN2C(=O)C(C3=NS(=O)(=O)c4cc(NS(C)(=O)=O)ccc4N3)=C(O)[C@@H]3[C@H]4CC[C@H](C4)[C@@H]32)cc1F` [Example 60, N-{3-[(1R,2S,7R,8S)-3-(3-Fluoro-4-methyl-benzyl)-6-hydroxy-4-oxo-3-aza-tricyclo[6.2.1.0^2,7]undec-5-en-5-yl]-1,1-dioxo-1,4-dihydro-1λ^6-benzo[1,2,4]thiadiazin-7-yl}-methanesulfonamide], for which the 50% inhibitory concentration (IC50) fell in the range of 20 to 100 nM.

On to `O=C1C(C2=NS(=O)(=O)c3cc(Br)cnc3N2)=C(O)C2C([C@@H]3CC[C@H]2C3)N1Cc1ccc(F)cc1` (stereo partly shown) [Example 61], for which the IC50 was in the range of 1000 to 100000 nM.

Source of the values: patent US8765741B2, “5,6-dihydro-1H-pyridin-2-one compounds” (Anadys Pharmaceuticals, Inc., priority 2007, dated 2014).
